According to US5744469A, “Method for treating dermatitis” (Eli Lilly and Company, priority 1996, dated 1998):

Assays:
fungal dermatitis = test: double-blind, randomized, placebo and haloperidol-controlled clinical trial; format: in vivo; conditions: human, 15±2.5 mg/day vs haloperidol (15±5 mg/day), double-blind extension treatment phase
Experimental: Such effectiveness for the treatment, amelioration of fungal dermatitis was shown in the following clinical trial:
The study was a double-blind, randomized, parallel, placebo and haloperidol-controlled study of 55 human subjects. The study was conducted in 23 study centers throughout the United States and Canada. […] The acute phase lasted for 6 weeks with evaluations performed weekly followed by a double-blind extension phase of at least one year.

[1] = tested on: conditioned avoidance response; conditions: rats; cited from earlier work
[2] = detection of radiolabelled compound in saliva; format: in vivo
Experimental: For example, in the treatment of adult humans, dosages of from about 5 to 20 mg per day may be used. A once a day dosage is normally sufficient, although divided doses may be administered. For treatment of fungal dermatitis in a human, a dose range of from about […], preferably 5 to 20 mg per day is suitable.

[3] = tested on: apomorphine-induced climbing behavior and hypothermia; conditions: mice; cited from earlier work

Cc1cc2c(s1)Nc1ccccc1N=C2N1CCN(C)CC1 [2-methyl-4-(4-methyl-1-piperazinyl)-10H-thieno[2,3-b][1,5]benzodiazepine]
occurrence of fungal dermatitis versus haloperidol (fungal dermatitis): statistically significantly less frequently
conditioned avoidance response [1]: inhibits
detection in the saliva [2]: can be detected in the saliva
apomorphine-induced climbing behavior [3]: antagonized
apomorphine-induced hypothermia [3]: antagonized
